Test results: patent publication US12091426B2, “Bifunctional degraders of hematopoietic progenitor kinase and therapeutic uses thereof” (Nurix Therapeutics, Inc., priority 2021, dated 2024)

Target: T1, HPK1 (Homo sapiens, UniProt Q92918)
T1 construct: A HiBiT tag was introduced by CRISPR on the N terminus of HPK1 in Jurkat cells; host or cells: Jurkat cells (ATCC TIB-152), monoclonal line with CRISPR knock-in of HiBiT at the endogenous HPK1 locus
Assay: HPK1 Cellular HiBit Degradation Assay
Format: cell-based
Details: HiBiT HPK1 Jurkat cells, 24 hrs; for DC50: concentration at which 50% of HPK1 was remaining, read-out: DC50 Category; for Dmax: Jurkat, read-out: Dmax Category
Summary of the method: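 Degraders are dosed in an 11-point series (10 uM to 0.1 nM final) onto Jurkat cells carrying an N-terminal HiBiT tag on endogenous HPK1. After 24 hrs at 37° C, lysis-based HiBiT luminescence quantifies remaining HPK1 relative to vehicle, and curve fitting gives DC50 and Dmax.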

[1] = maximum degradation vs DMSO vehicle control

T1 sequence (Q92918 whole entry): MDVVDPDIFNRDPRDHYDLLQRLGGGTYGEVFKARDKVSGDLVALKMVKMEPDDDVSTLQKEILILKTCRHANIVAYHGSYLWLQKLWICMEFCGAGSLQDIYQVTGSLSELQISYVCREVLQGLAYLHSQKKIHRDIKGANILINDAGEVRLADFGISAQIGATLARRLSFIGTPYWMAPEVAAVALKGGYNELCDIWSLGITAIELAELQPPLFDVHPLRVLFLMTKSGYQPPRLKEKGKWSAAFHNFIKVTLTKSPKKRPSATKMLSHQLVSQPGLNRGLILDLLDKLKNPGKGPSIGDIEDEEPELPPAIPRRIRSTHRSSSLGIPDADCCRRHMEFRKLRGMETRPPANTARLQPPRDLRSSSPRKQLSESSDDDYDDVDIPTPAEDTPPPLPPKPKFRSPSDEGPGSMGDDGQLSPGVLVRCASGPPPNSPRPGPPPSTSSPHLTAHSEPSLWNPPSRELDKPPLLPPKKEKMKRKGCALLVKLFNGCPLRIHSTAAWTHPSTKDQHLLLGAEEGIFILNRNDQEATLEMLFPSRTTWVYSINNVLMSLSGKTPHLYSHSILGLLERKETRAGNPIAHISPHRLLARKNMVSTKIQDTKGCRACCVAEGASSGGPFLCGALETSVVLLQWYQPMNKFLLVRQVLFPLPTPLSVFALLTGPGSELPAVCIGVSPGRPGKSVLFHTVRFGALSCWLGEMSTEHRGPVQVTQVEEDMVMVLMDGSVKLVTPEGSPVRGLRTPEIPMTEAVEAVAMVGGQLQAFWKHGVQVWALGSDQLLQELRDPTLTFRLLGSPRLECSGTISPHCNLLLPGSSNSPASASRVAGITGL

Compound	DC50	Dmax [1]	Dmax Category [1]
CC(C)n1cnc2cc(-c3ccc4c(c3)N([C@H]3C[C@@H](N5CCCCC5)C3)C(=O)C43CCN(C(=O)C4CCC5(CCC5)N(C(=O)C5CCN(c6ccc(C7CCC(=O)NC7=O)cn6)CC5)C4)CC3)nc(NC3CC3)c21 (mixture of isomers) [Example 290, (3RS)-3-(6-{4-[7-({6-[4-(cyclopropylamino)-3-(propan-2-yl)-3H-imidazo[4,5-c]pyridin-6-yl]-2-oxo-1-[(1S,3S)-3-(piperidin-1-yl)cyclobutyl]-1,2-dihydrospiro[indole-3,4′-piperidin]-1′-yl}carbonyl)-5-azaspiro[3.5]nonane-5-carbonyl]piperidin-1-yl}pyridin-3-yl)piperidine-2,6-dione]	100 to 500 nM	70 to 85%	–
CC(C)n1cnc2cc(-c3ccc4c(c3)N(C3CC(N5CCCCC5)C3)C(=O)C43CCN(C(=O)C4CCN(C(=O)C5CCN(c6ccc7c(c6)C(=O)N(C6CCC(=O)NC6=O)C7=O)CC5)CC4)CC3)nc(Nc3ccncc3F)c21 (racemic) [Example 88, 2-[(3RS)-2,6-dioxopiperidin-3-yl]-5-(4-{4-[(6-{4-[(3-Fluoropyridin-4-yl)amino]-3-(propan-2-yl)-3H-imidazo[4,5-c]pyridin-6-yl}-2-oxo-1-[(1S,3S)-3-(piperidin-1-yl)cyclobutyl]-1,2-dihydrospiro[indole-3,4′-piperidin]-1′-yl)carbonyl]piperidine-1-carbonyl}piperidin-1-yl)-2,3-dihydro-1H-isoindole-1,3-dione]	< 100 nM	–	C (C: >50%-<70%)
CC(C)n1cnc2cc(-c3ccc4c(c3)N([C@H]3C[C@@H](N5CCCCC5)C3)C(=O)C43CCN(C(=O)[C@@H]4CCC[C@H](NC(=O)CC5CCN(c6ccc(C7CCC(=O)NC7=O)cn6)CC5)C4)CC3)nc(NC3CC3)c21 (mixture of isomers) [Example 292, N-[(1S,3R)-3-({6-[4-(cyclopropylamino)-3-(propan-2-yl)-3H-imidazo[4,5-c]pyridin-6-yl]-2-oxo-1-[(1s,3s)-3-(piperidin-1-yl)cyclobutyl]-1,2-dihydrospiro[indole-3,4′-piperidin]-1′-yl}carbonyl)cyclohexyl]-2-(1-{5-[(3RS)-2,6-dioxopiperidin-3-yl]pyridin-2-yl}piperidin-4-yl)acetamide]	100 to 500 nM	70 to 85%	–
Cc1cc(C(=O)N2CCN(c3ccc4c(c3)C(=O)N(C3CCC(=O)NC3=O)C4=O)CC2)ccc1C(=O)N1CCC2(CC1)C(=O)N([C@H]1C[C@@H](N3CCCCC3)C1)c1cc(-c3cc4ncn(C(C)C)c4c(Nc4ccccc4F)n3)ccc12 (mixture of isomers) [Example 124, 2-[(3RS)-2,6-dioxopiperidin-3-yl]-5-(4-{4-[(6-{4-[(2-fluorophenyl)amino]-3-(propan-2-yl)-3H-imidazo[4,5-c]pyridin-6-yl}-2-oxo-1-[(1S,3S)-3-(piperidin-1-yl)cyclobutyl]-1,2-dihydrospiro[indole-3,4′-piperidin]-1′-yl)carbonyl]-3-methylbenzoyl}piperazin-1-yl)-2,3-dihydro-1H-isoindole-1,3-dione]	100 to 500 nM	70 to 85%	–
CC(C)n1cnc2cc(-c3ccc4c(c3)N([C@H]3C[C@@H](N5CCCCC5)C3)C(=O)C43CCN(C(=O)C4(C)CCN(C(=O)[C@H]5CC[C@H](Oc6ncc(C7CCC(=O)NC7=O)cn6)CC5)CC4)CC3)nc(NC3CC3)c21 (mixture of isomers) [Example 194, (3RS)-3-(2-{[(1R,4R)-4-[4-({6-[4-(cyclopropylamino)-3-(propan-2-yl)-3H-imidazo[4,5-c]pyridin-6-yl]-2-oxo-1-[(1S,3S)-3-(piperidin-1-yl)cyclobutyl]-1,2-dihydrospiro[indole-3,4′-piperidin]-1′-yl}carbonyl)-4-methylpiperidine-1-carbonyl]cyclohexyl]oxy}pyrimidin-5-yl)piperidine-2,6-dione]	100 to 500 nM	70 to 85%	–
CC(C)n1cnc2cc(-c3ccc4c(c3)N([C@H]3C[C@@H](N5CCCCC5)C3)C(=O)C43CCN(C(=O)C4CCN(C(=O)[C@H]5CC[C@H](Oc6ccc(C7CCC(=O)NC7=O)cn6)CC5)CC4)CC3)nc(Nc3ccccc3F)c21 (mixture of isomers) [Example 62, (3RS)-3-(6-{[(1R,4R)-4-{4-[(6-{4-[(2-fluorophenyl)amino]-3-(propan-2-yl)-3H-imidazo[4,5-c]pyridin-6-yl}-2-oxo-1-[(1S,3S)-3-(piperidin-1-yl)cyclobutyl]-1,2-dihydrospiro[indole-3,4′-piperidin]-1′-yl)carbonyl]piperidine-1-carbonyl}cyclohexyl]oxy}pyridin-3-yl)piperidine-2,6-dione]	100 to 500 nM	50 to 70%	–
CC(C)n1cnc2cc(-c3ccc4c(c3)N([C@H]3C[C@@H](N5CCCCC5)C3)C(=O)C43CCN(C(=O)[C@@H]4CCN(C(=O)[C@H]5CC[C@H](Nc6cncc(C7CCC(=O)NC7=O)c6)CC5)C4)CC3)nc(Nc3ccccc3F)c21 (mixture of isomers) [Example 12, (3RS)-3-(5-{[(1R,4R)-4-[(3R)-3-[(6-{4-[(2-fluorophenyl)amino]-3-(propan-2-yl)-3H-imidazo[4,5-c]pyridin-6-yl}-2-oxo-1-[(1S,3S)-3-(piperidin-1-yl)cyclobutyl]-1,2-dihydrospiro[indole-3,4′-piperidin]-1′-yl)carbonyl]pyrrolidine-1-carbonyl]cyclohexyl]amino}pyridin-3-yl)piperidine-2,6-dione]	500 to 1000 nM	70 to 85%	–

Further lines, with some results ahead:

DC50	Dmax [1]	Compound	Dmax Category [1]
< 100 nM	70 to 85%	CC(C)n1cnc2cc(-c3ccc4c(c3)N([C@H]3C[C@@H](N5CCCCC5)C3)C(=O)C43CCN(C(=O)C4CCN(C(=O)[C@H]5CC[C@H](N(C)c6ccc(C7CCC(=O)NC7=O)cn6)CC5)CC4)CC3)nc(Nc3ccccc3F)c21 (mixture of isomers) [Example 131, (3RS)-3-(6-{methyl[(1R,4R)-4-{4-[(6-{4-[(2-fluorophenyl)amino]-3-(propan-2-yl)-3H-imidazo[4,5-c]pyridin-6-yl}-2-oxo-1-[(1S,3S)-3-(piperidin-1-yl)cyclobutyl]-1,2-dihydrospiro[indole-3,4′-piperidin]-1′-yl)carbonyl]piperidine-1-carbonyl}cyclohexyl]amino}pyridin-3-yl)piperidine-2,6-dione]	–
< 100 nM	70 to 85%	CC(C)n1cnc2cc(-c3ccc4c(c3)N([C@H]3C[C@@H](N5CCCCC5)C3)C(=O)C43CCN(C(=O)C4CCN(C(=O)[C@H]5CC[C@H](Cn6ncc7cc(C8CCC(=O)NC8=O)ccc76)CC5)CC4)CC3)nc(Nc3ccccc3F)c21 (mixture of isomers) [Example 64, (3RS)-3-(1-{[(1R,4R)-4-{4-[(6-{4-[(2-fluorophenyl)amino]-3-(propan-2-yl)-3H-imidazo[4,5-c]pyridin-6-yl}-2-oxo-1-[(1S,3S)-3-(piperidin-1-yl)cyclobutyl]-1,2-dihydrospiro[indole-3,4′-piperidin]-1′-yl)carbonyl]piperidine-1-carbonyl}cyclohexyl]methyl}-1H-indazol-5-yl)piperidine-2,6-dione]	–
< 100 nM	70 to 85%	CC(C)n1cnc2cc(-c3ccc4c(c3)N([C@H]3C[C@@H](N5CCCCC5)C3)C(=O)C43CCN(C(=O)C4(C)CCN(C(=O)C5CCN(c6ccc(N7CCC(=O)NC7=O)cc6)CC5)CC4)CC3)nc(NC3CC3)c21 [Example 211, 1-(4-{4-[4-({6-[4-(cyclopropylamino)-3-(propan-2-yl)-3H-imidazo[4,5-c]pyridin-6-yl]-2-oxo-1-[(1S,3S)-3-(piperidin-1-yl)cyclobutyl]-1,2-dihydrospiro[indole-3,4′-piperidin]-1′-yl}carbonyl)-4-methylpiperidine-1-carbonyl]piperidin-1-yl}phenyl)-1,3-diazinane-2,4-dione]	–
< 100 nM	70 to 85%	CC(C)n1cnc2cc(-c3ccc4c(c3)N([C@H]3C[C@@H](N5CCCCC5)C3)C(=O)C43CCN(C(=O)C4CCN(C(=O)CC5CCN(c6ccc(C7CCC(=O)NC7=O)cn6)CC5)CC4)CC3)nc(Oc3ccccc3F)c21 (stereo partly drawn) [Example 167, 3-[6-(4-{2-[4-({6-[4-(2-fluorophenoxy)-3-(propan-2-yl)-3H-imidazo[4,5-c]pyridin-6-yl]-2-oxo-1-[(1S,3S)-3-(piperidin-1-yl)cyclobutyl]-1,2-dihydrospiro[indole-3,4′-piperidin]-1′-yl}carbonyl)piperidin-1-yl]-2-oxoethyl}piperidin-1-yl)pyridin-3-yl]piperidine-2,6-dione]	–
< 100 nM	> 85%	CC(C)n1cnc2cc(-c3ccc4c(c3)N([C@H]3C[C@@H](N5CCCCC5)C3)C(=O)C43CCN(C(=O)C4(C)CCN(C(=O)[C@H]5CC[C@H](Oc6ccc(C7CCC(=O)NC7=O)cn6)CC5)CC4)CC3)nc(Nc3ccccc3F)c21 (mixture of isomers) [Example 105, (3RS)-3-(6-{1[(1R,4R)-4-{4-[(6-{4-[(2-fluorophenyl)amino]-3-(propan-2-yl)-3H-imidazo[4,5-c]pyridin-6-yl}-2-oxo-1-[(1S,3S)-3-(piperidin-1-yl)cyclobutyl]-1,2-dihydrospiro[indole-3,4′-piperidin]-1′-yl)carbonyl]-4-methylpiperidine-1-carbonyl}cyclohexyl]oxy}pyridin-3-yl)piperidine-2,6-dione]	–
< 100 nM	50 to 70%	CC(C)n1cnc2cc(-c3ccc4c(c3)N([C@H]3C[C@@H](N5CCCCC5)C3)C(=O)C43CCN(C(=O)C4(C)CCN(C(=O)[C@H]5CC[C@H](Cn6cc7cc(C8CCC(=O)NC8=O)ccc7n6)CC5)CC4)CC3)nc(Nc3ccccc3F)c21 (mixture of isomers) [Example 190, (3RS)-3-(2-{[(1R,4R)-4-{4-[(6-{4-[(2-fluorophenyl)amino]-3-(propan-2-yl)-3H-imidazo[4,5-c]pyridin-6-yl}-2-oxo-1-[(1S,3S)-3-(piperidin-1-yl)cyclobutyl]-1,2-dihydrospiro[indole-3,4′-piperidin]-1′-yl)carbonyl]-4-methylpiperidine-1-carbonyl}cyclohexyl]methyl}-2H-indazol-5-yl)piperidine-2,6-dione]	–
